From patent publication US20230263822A1, “MODULATION OF FACTOR 11 EXPRESSION” (Ionis Pharmaceuticals, Inc., priority 2008, published 2023) come the findings set out here.

The data set deals with human Factor 11 mRNA. The data set is described as follows: Antisense inhibition of human Factor 11 in HepG2 cells, lipofectin, 75 nM (Example 1). Type of data set: cell-based. The settings on record: 75 nM antisense oligonucleotide, ~24 h, relative to untreated control cells. An outline of the steps: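 HepG2 cells transfected via lipofectin with 75 nM antisense oligonucleotide (5-10-5 MOE gapmers, 20-mers, phosphorothioate, 5-methylcytidines), treated ~24 h. Factor 11 mRNA quantified by real-time PCR, normalised to RIBOGREEN total RNA; percent inhibition versus untreated cells.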

Setting [1] is: gapmers targeted to SEQ ID NO: 1.
Setting [2] is: gapmers targeted to SEQ ID NO: 2.

Strand notation (5' to 3'): a small letter for the sugar, then the base; units joined by * are phosphorothioate-linked, units joined directly phosphodiester-linked; [ ] holds rarer units or linkages, { } end groups; capitals alone tell only the bases. e = 2'-O-(2-methoxyethyl) (MOE); [5mC] = 5-methylcytosine; d = 2'-deoxy (DNA)

For “413490 (antisense e[5mC]*eT*eA*e[5mC]*e[5mC]*d[5mC]*d[5mC]*dA*dT*dA*dG*dA*dA*dA*d[5mC]*eA*eG*eT*eG*eA) [compound 413490]”, the “% inhibition” value under setting [1] came to 57%. Take “413491 (antisense eT*eT*eA*eG*eG*dT*dG*dA*d[5mC]*dT*d[5mC]*dT*dA*d[5mC]*d[5mC]*e[5mC]*e[5mC]*eA*eT*eA) [compound 413491]”: the “% inhibition” value under setting [1] is listed as 73%.

For the substance “413492 (antisense eA*eG*eA*e[5mC]*eA*d[5mC]*dG*d[5mC]*dA*dA*dA*dA*dT*d[5mC]*dT*eT*eA*eG*eG*eT) [compound 413492]”, under setting [1], the “% inhibition” value is listed as 68%.

Consider “413493 (antisense eT*eT*eT*e[5mC]*eT*dT*dG*dA*dA*d[5mC]*d[5mC]*d[5mC]*d[5mC]*dA*dA*eA*eG*eA*eA*eA) [compound 413493]”, for which the “% inhibition” value under setting [1] was 65%. The same measure, in the same setting: next, “413494 (antisense eG*eT*eG*eG*eT*dT*dT*d[5mC]*d[5mC]*dA*dG*dT*dT*dT*d[5mC]*eA*eA*e[5mC]*eA*eA) [compound 413494]”: 70%; “413495 (antisense eT*eT*eG*eG*e[5mC]*dT*dT*dT*d[5mC]*dT*dG*dG*dA*dG*dA*eG*eT*eA*eT*eT) [compound 413495]”: 58%. The same measure, in the same setting: to “413496 (antisense eG*eG*e[5mC]*eA*e[5mC]*dA*dG*dA*dT*d[5mC]*dA*dT*d[5mC]*dT*dT*eA*eT*eG*eG*eG) [compound 413496]” belongs 72%; to “413497 (antisense eG*eA*eT*eT*e[5mC]*d[5mC]*dT*dG*d[5mC]*dA*dA*dA*dA*dT*dG*eG*eT*eG*eA*eA) [compound 413497]”, 39%. The same measure, in the same setting: to “413498 (antisense eG*e[5mC]*eA*eG*eA*dG*dT*dG*dT*dA*dG*dA*dT*dT*d[5mC]*e[5mC]*eT*eG*e[5mC]*eA) [compound 413498]” belongs 60%. As for “413499 (antisense eA*eT*e[5mC]*eA*eT*dT*dT*dT*dT*d[5mC]*dA*dG*dG*dA*dA*eA*eG*eT*eG*eT) [compound 413499]”, the “% inhibition” value under setting [1] was determined as 52%. “413500 (antisense eG*eT*eG*eA*eG*dA*d[5mC]*dA*dA*dA*dT*d[5mC]*dA*dA*dG*eA*e[5mC]*eT*eT*e[5mC]) [compound 413500]”: the “% inhibition” value under setting [2] was found to be 15%. On the same count and under the same terms, next, “413501 (antisense eT*eT*eA*eG*eT*dT*dT*dA*d[5mC]*dT*dG*dA*d[5mC]*dA*d[5mC]*eT*eA*eA*eG*eA) [compound 413501]”: 23%. Consider “413502 (antisense e[5mC]*eT*eG*e[5mC]*eT*dT*dT*dA*dT*dG*dA*dA*dA*dA*dA*e[5mC]*e[5mC]*eA*eA*e[5mC]) [compound 413502]”, for which, under setting [2], the “% inhibition” value is recorded as 22%. The same measure, in the same setting: to “413503 (antisense eA*eT*eA*e[5mC]*e[5mC]*dT*dA*dG*dT*dA*d[5mC]*dA*dA*dT*dG*eT*eA*eA*eA*eT) [compound 413503]” belongs 29%. In the case of “413504 (antisense eG*eG*e[5mC]*eT*eT*dG*dT*dG*dT*dG*dT*dG*dG*dT*d[5mC]*eA*eA*eT*eA*eT) [compound 413504]”, the “% inhibition” value under setting [2] is recorded as 54%. On the same count and under the same terms, to “413505 (antisense eT*eG*eG*eG*eA*dA*dA*dG*d[5mC]*dT*dT*dT*d[5mC]*dA*dA*eT*eA*eT*eT*e[5mC]) [compound 413505]” belongs 57%; to “413506 (antisense eA*eT*eG*eG*eA*dA*dT*dT*dG*dT*dG*d[5mC]*dT*dT*dA*eT*eG*eA*eG*eT) [compound 413506]”, 57%; to “413507 (antisense eT*eT*eT*e[5mC]*eA*dA*dG*d[5mC]*dT*d[5mC]*dA*dG*dG*dA*dT*eG*eG*eG*eA*eA) [compound 413507]”, 55%. Still for that read-out and setting: to “413508 (antisense eG*eT*eT*eG*eG*dT*dA*dA*dA*dA*dT*dG*d[5mC]*dA*dA*e[5mC]*e[5mC]*eA*eA*eA) [compound 413508]” belongs 64%; to “413509 (antisense eT*e[5mC]*eA*eG*eG*dA*d[5mC]*dA*d[5mC]*dA*dA*dG*dT*dA*dA*eA*e[5mC]*e[5mC]*eT*eG) [compound 413509]”, 66%; to “413510 (antisense eT*eG*e[5mC]*eA*eA*dG*d[5mC]*dT*dG*dG*dA*dA*dA*dT*dA*eA*eA*eA*eG*e[5mC]) [compound 413510]”, 17%. “413511 (antisense eT*eG*e[5mC]*e[5mC]*eA*dA*dT*dT*dT*dA*dA*dA*dA*dG*dT*eG*eT*eA*eG*e[5mC]) [compound 413511]”: the “% inhibition” value under setting [2] came to 43%. With “413512 (antisense eA*eT*eA*eT*eT*dT*d[5mC]*dA*dA*dA*dA*dT*d[5mC]*d[5mC]*dA*eG*eT*eA*eT*eG) [compound 413512]”, the “% inhibition” value under setting [2] amounted to 39%. On the same count and under the same terms, next, “413513 (antisense eT*eT*e[5mC]*eT*eG*dA*dA*dT*dA*dT*dA*d[5mC]*dA*dA*dA*eT*eT*eA*eA*eT) [compound 413513]”: 27%; “413514 (antisense eT*eT*eT*eA*e[5mC]*dT*dA*dT*dG*dA*dA*dA*dA*dT*d[5mC]*eT*eA*eA*eA*eT) [compound 413514]”: 5%; “413515 (antisense eG*eG*eT*eA*eT*d[5mC]*d[5mC]*dT*dG*dA*dG*dT*dG*dA*dG*eA*eT*e[5mC]*eT*eA) [compound 413515]”: 36%.

As to “413516 (antisense e[5mC]*e[5mC]*eA*eG*e[5mC]*dT*dA*dT*d[5mC]*dA*dG*dG*dA*dA*dA*eA*eT*eT*e[5mC]*e[5mC]) [compound 413516]”, the “% inhibition” value under setting [2] was determined as 50%. As to “413517 (antisense eA*eA*eA*eG*e[5mC]*dT*dA*dT*dT*dG*dG*dA*dG*dA*d[5mC]*eT*e[5mC]*eA*eG*eA) [compound 413517]”, the “% inhibition” value under setting [2] turned out to be 51%. Consider “413518 (antisense eA*eT*eG*eG*eA*dA*dT*d[5mC]*dT*d[5mC]*dT*dT*d[5mC]*dA*dT*eT*eT*e[5mC]*eA*eT) [compound 413518]”, for which the “% inhibition” value under setting [2] is given as 49%. Still for that read-out and setting: to “413519 (antisense eA*eT*eG*eG*eA*dG*dA*d[5mC]*dA*dT*dT*d[5mC]*dA*dT*dT*eT*e[5mC]*e[5mC]*eA*e[5mC]) [compound 413519]” belongs 59%; to “413520 (antisense eG*e[5mC]*eT*e[5mC]*eT*dG*dA*dG*dA*dG*dT*dT*d[5mC]*d[5mC]*dA*eA*eT*eT*e[5mC]*eA) [compound 413520]”, 52%; to “413521 (antisense e[5mC]*eT*eG*eG*eG*dA*dA*dG*dG*dT*dG*dA*dA*dT*dT*eT*eT*eT*eA*eG) [compound 413521]”, 62%. Same read-out and setting: to “413522 (antisense eT*e[5mC]*eA*eA*eG*dA*dG*dT*d[5mC]*dT*dT*d[5mC]*dA*dT*dG*e[5mC]*eT*eA*e[5mC]*e[5mC]) [compound 413522]” belongs 42%; to “413523 (antisense eT*e[5mC]*eA*eG*eT*dT*dT*dA*d[5mC]*d[5mC]*dT*dG*dG*dG*dA*eT*eG*e[5mC]*eT*eG) [compound 413523]”, 61%. The same measure, in the same setting: next, “413524 (antisense eG*eA*e[5mC]*eA*eT*dT*dA*dT*dA*d[5mC]*dT*d[5mC]*dA*d[5mC]*d[5mC]*eA*eT*eT*eA*eT) [compound 413524]”: 7%; “413525 (antisense eG*eT*eA*eT*eA*dA*dA*dT*dG*dT*dG*dT*d[5mC]*dA*dA*eA*eT*eT*eA*eA) [compound 413525]”: 43%. As for “413526 (antisense eG*eT*eA*eA*eA*dG*dT*dT*dT*dT*dA*d[5mC]*d[5mC]*dT*dT*eA*eA*e[5mC]*e[5mC]*eT) [compound 413526]”, the “% inhibition” value under setting [2] is on record as 47%.

“413527 (antisense e[5mC]*e[5mC]*eA*eT*eA*dA*dT*dG*dA*dA*dG*dA*dA*dG*dG*eA*eA*eG*eG*eG) [compound 413527]”: the “% inhibition” value under setting [2] was 52%. For “413528 (antisense eT*eT*eA*eA*eG*dT*dT*dA*d[5mC]*dA*dT*dT*dG*dT*dA*eG*eA*e[5mC]*e[5mC]*eA) [compound 413528]”, the “% inhibition” value under setting [2] came to 48%. Regarding “413529 (antisense eT*eG*eT*eG*eT*dG*dG*dG*dT*d[5mC]*d[5mC]*dT*dG*dA*dA*eA*eT*eT*e[5mC]*eT) [compound 413529]”, under setting [2], the “% inhibition” value was 52%.

Turning to “413530 (antisense eA*eT*e[5mC]*eT*eT*dG*dT*dA*dA*dT*dT*dA*d[5mC]*dA*d[5mC]*eA*e[5mC]*e[5mC]*e[5mC]*e[5mC]) [compound 413530]”, under setting [2], the “% inhibition” value is recorded as 27%. In the case of “413531 (antisense eG*eT*eA*e[5mC]*eA*d[5mC]*dT*d[5mC]*dT*dG*d[5mC]*dA*dA*d[5mC]*dA*eG*eA*eA*eG*e[5mC]) [compound 413531]”, under setting [2], the “% inhibition” value stood at 47%. On the same count and under the same terms, to “413532 (antisense eA*eG*eG*eG*eA*dA*dT*dA*dA*d[5mC]*dA*dT*dG*dA*dA*eG*eG*e[5mC]*e[5mC]*e[5mC]) [compound 413532]” belongs 32%. As to “413533 (antisense eA*eT*e[5mC]*e[5mC]*eA*dG*dT*dT*d[5mC]*dA*d[5mC]*d[5mC]*dA*dT*dT*eG*eG*eA*eG*eA) [compound 413533]”, the “% inhibition” value under setting [2] was 48%. Same read-out and setting: next, “413534 (antisense eT*eT*eT*eT*e[5mC]*d[5mC]*dA*dG*dA*dA*dG*dA*dG*dA*d[5mC]*eT*e[5mC]*eT*eT*e[5mC]) [compound 413534]”: 31%; “413535 (antisense eG*eT*e[5mC]*eA*e[5mC]*dA*dT*dT*dT*dA*dA*dA*dA*dT*dT*eT*e[5mC]*e[5mC]*eA*eA) [compound 413535]”: 41%; “413536 (antisense eT*eT*eA*eA*eT*dA*dT*dA*d[5mC]*dT*dG*d[5mC]*dA*dG*dA*eG*eA*eA*e[5mC]*e[5mC]) [compound 413536]”: 37%.
